The source of these data is article PMC3684770 (Free Radical Biology & Medicine, 2013).

Series [1] has as its system Nrf2-ARE pathway. As to the kind of experiment: ARE reporter assay in CHO 4xARE-TK-GFP cells (Spectrum library hits). To be noted: for maximal fold induction: CHO, read-out: Fold GFP induction. As for the experimental part: The Z′ score was calculated as follows Z′=1−(3SD^++3SD^−)/(Ave^+–Ave^−) where SD^+ = standard deviation of positive control wells; SD^− = standard deviation of negative control wells; Ave^+ = average fluorescence reading of positive control wells; Ave^− = average fluorescence reading of negative control wells.
Media was removed by hand and replaced (1 compound/well) with the Spectrum library diluted to 10 μM in 0.1% DMSO using a Q-bot liquid handling system (Genetix, New Milton, UK). […] The TK-GFP CHO ARE cell line was screened twice in a single point assay and the control TK-GFP CHO cell line was screened once to eliminate false positives.
The compounds were applied in triplicate to confluent cells in 96 well plates in serum free medium for 24 hours and the induction of GFP measured in a fluorescence plate reader.
In order to screen the Spectrum collection of 2000 molecules the reporter assay was optimised in […]. To assess the suitability of the assay for library screening, a Z’ score calculation was performed by treating alternate wells with vehicle (0.1% DMSO) and 10 µM Ebselen as a positive control (see calculation in Methods). […] The library was subsequently screened at a single point concentration of 10µM for every compound. Drug library dilutions and plating were performed with a Q-BOT liquid handling system and both the 4xARE-TK-GFP reporter cell line and TK-GFP control cell line were tested for their response to the compounds. Hits were identified as having data points more than three standard deviations above the background level, which was the average value of 24 wells treated with vehicle (0.1% DMSO) only. Hit compounds were checked to see if they generated a response in the control cell line, for example by non-specific activation of transcription or autofluorescence. […] The library screen was repeated once in the 4xARE –TK-CHO cell line and compounds classed as hits in both screens were taken forward for further assessment.

Series [2] relates to NSC34 cells. Kind of series: NSC34 oxidative stress assay (serum withdrawal, DCF). The note with it: for NSC34 oxidative stress assay Max reduction: maximum % inhibition of DCF signal, negative = prooxidant; for Emax: Mus musculus, NSC-34, 24 h, read-out: NSC34 oxidative stress assay Max reduction; for NSC34 oxidative stress assay Toxic dose: minimum dose at which toxicity was observed.
Method: (§1) Media were then replaced with serum-free, phenol-free media for 5 h.

In series [3] the test system is C6 astrocyte cell line.
Method: as §1
In series [4] the test system is 1321N1 astrocyte cell line. Kind of series: 1321N1 oxidative stress assay (serum withdrawal, DCF). To be noted: for 1321N1 oxidative stress assay Max reduction: maximum % inhibition of DCF signal; for Emax: 1321-N1, 24 h, read-out: 1321N1 oxidative stress assay Max reduction; for 1321N1 oxidative stress assay Toxic dose: minimum dose at which toxicity was observed.
Method: as §1
The test system of series [5] is 1321N1 astrocyte cell line.
Method: as §1
In series [6] the test system is NSC34 cells.
Method: as §1
The test system of series [7] is C6 astrocyte cell line. As to the kind of experiment: C6 oxidative stress assay (serum withdrawal, DCF). To be noted: for C6 oxidative stress assay Max reduction: maximum % inhibition of DCF signal; for IC50: read-out: C6 oxidative stress assay IC50; for Emax: 24 h, read-out: C6 oxidative stress assay Max reduction; for C6 oxidative stress assay Toxic dose: minimum dose at which toxicity was observed.
Method: as §1

Setting [8] is: CHO ARE reporter, 7-point concentration response.
Where [9] appears, read: 24-h preconditioning, 6-h serum withdrawal, DCF fluorescence.
Setting [10] is: lowest dose at which a reduction in GFP fluorescence was observed.
[11] abbreviates: Homo sapiens, 1321-N1, read-out: 1321N1 oxidative stress assay IC50.
The mark [12] stands for this setting: average fold over baseline at the maximal response, CHO cells, 24 h.

Where two headings read alike, the source gives them in different places.

Consider `C[C@@H]1C(=O)O[C@H]2[C@H]1CC[C@@]1(C)C=CC(=O)[C@@]3(C)O[C@@]213` [Epoxy(4,5α)-4,5-dihydrosantonin], for which, in series [1], the “Fold GFP induction” value was 2.91 fold and the Toxic dose came to 100 µM. This compound also registered an EC50 in series [1] (setting [8]) of 18.2 µM. Also, the “NSC34 oxidative stress assay Max reduction” value in series [2] was 0%. For the same compound, the “C6 oxidative stress assay Toxic dose” value in series [3] is “None”. In addition, the “1321N1 oxidative stress assay Max reduction” value in series [4] is recorded as 63%. Moreover, the IC50 in series [4] (read-out: 1321N1 oxidative stress assay IC50, 24-h preconditioning, 6-h serum withdrawal, DCF fluorescence) is 0.662 µM. Besides, the “1321N1 oxidative stress assay Toxic dose” value in series [5] is recorded as “None”. Moreover, in series [6], the “NSC34 oxidative stress assay Toxic dose” value was found to be 3 µM. Besides, the “C6 oxidative stress assay Max reduction” value in series [7] was 62%. Also, in series [7] (setting [9]), the half-inhibitory concentration (IC50) was determined as 2.13 µM.

`Oc1ccc(O)cc1` [Hydroquinone, reference compound] registered an EC50 in series [1] (Cricetulus griseus) of 3.07 µM. This compound also came in with a Toxic dose in series [1] (setting [10]) of 100 µM. Besides, the Emax in series [2] was found to be 0%; in series [4] (Homo sapiens), 80%; in series [7] (Rattus norvegicus, Astrocyte), 67%. Also, the “C6 oxidative stress assay Toxic dose” value in series [3] was “None”. Moreover, the half-maximal inhibitory concentration (IC50) in series [4] (setting [11]) was 3.38 µM; in series [7] (Rattus norvegicus, Astrocyte), 7.07 µM. Besides, the “1321N1 oxidative stress assay Toxic dose” value in series [5] is “None”. For the same compound, the “NSC34 oxidative stress assay Toxic dose” value in series [6] was “None”.

With `CC(=O)CCC(=O)O` [Levulinic acid], the half-maximal effective concentration (EC50) in series [1] (Cricetulus griseus) stood at 12 µM. Further, the Toxic dose entry in series [1] (setting [10]) is “None”. In addition, the Emax in series [2] was 15%; in series [4] (Homo sapiens), 58%; in series [7] (Rattus norvegicus, Astrocyte), 62%. Also, the “C6 oxidative stress assay Toxic dose” value in series [3] was “None”. The IC50 in series [4] (setting [11]) worked out at 3.31 µM; in series [7] (Rattus norvegicus, Astrocyte), 7.69 µM. Moreover, in series [5], the “1321N1 oxidative stress assay Toxic dose” value is “None”. In series [6], the “NSC34 oxidative stress assay Toxic dose” value is recorded as “None”.

`C=C(C)C1(O)OC(=O)C=C1OC` (stereo not drawn) [Penicillic acid]: the Toxic dose in series [1] (Chinese hamster) was 100 µM. This compound gave an EC50 in series [1] (Cricetulus griseus) of 14.9 µM. In addition, the maximal fold induction in series [1] (Cricetulus griseus, 24 h) was determined as 2.64. Besides, the Emax was found to be 9% in series [2]; 45% in series [4] (Homo sapiens); 68% in series [7] (Rattus norvegicus, Astrocyte). In addition, in series [3], the “C6 oxidative stress assay Toxic dose” value is listed as “none”. Further, the “1321N1 oxidative stress assay Toxic dose” value in series [5] is recorded as “none”. Moreover, in series [6], the “NSC34 oxidative stress assay Toxic dose” value is on record as “none”. In addition, in series [7] (Rattus norvegicus, Astrocyte), the IC50 is 4.62 µM.

On to `O=C(CCBr)N1CCN(C(=O)CCBr)CC1` [Pipobroman, reference compound], for which, in series [1] (Cricetulus griseus), the half-maximal effective concentration (EC50) is 10 µM. The compound further had a Toxic dose in series [1] (setting [10]) of 100 µM. The Emax in series [2] was 30%; in series [4] (Homo sapiens), 19%; in series [7] (Rattus norvegicus, Astrocyte) it was 71%. In addition, the “C6 oxidative stress assay Toxic dose” value in series [3] is recorded as “none”. Moreover, the IC50 in series [4] (setting [11]) was 3.16 µM; in series [7] (Rattus norvegicus, Astrocyte) it was 11 µM. In addition, the “1321N1 oxidative stress assay Toxic dose” value in series [5] (human) was 10 µM. Besides, in series [6], the “NSC34 oxidative stress assay Toxic dose” value is “none”.

Consider `CC(C)N(C(=O)CCl)c1ccccc1` [Propachlor], for which the response in series [1] (Cricetulus griseus) was half-maximal at 1.49 µM (EC50). For the same compound, the “Fold GFP induction” value in series [1] (setting [12]) worked out at 3.25 fold. In series [1] (setting [10]), this compound returned a Toxic dose of 100 µM. Also, the Emax in series [2] amounted to 0%; in series [4] (Homo sapiens) it was 50%; in series [7] (Rattus norvegicus, Astrocyte) it was 74%. For the same compound, the “NSC34 oxidative stress assay Toxic dose” value in series [2] amounted to 10 µM. Further, the IC50 is 0.829 µM in series [4] (setting [11]) and 0.645 µM in series [7] (Rattus norvegicus, Astrocyte). In addition, the “1321N1 oxidative stress assay Toxic dose” value in series [4] worked out at 10 µM. For the same compound, in series [7], the “C6 oxidative stress assay Toxic dose” value is 10 µM.

In series [1] (setting [10]), `C=C(C)/C=C1/C=CC(=O)C(C)=C1` [Retusoquinone] came in with a Toxic dose of 100 µM. In addition, in series [2], the Emax was -25% and the “NSC34 oxidative stress assay Toxic dose” value is given as “none”. For the same compound, the Emax in series [4] (Homo sapiens) was 0%. In series [4], the “1321N1 oxidative stress assay Toxic dose” value is “none”. Moreover, in series [7] (Rattus norvegicus, Astrocyte), the Emax stood at 15% and the IC50 turned out to be 2.06 µM. The “C6 oxidative stress assay Toxic dose” value in series [7] is “none”.

In turn, `COc1ccc2c(c1)OC/C(=C/c1ccc(OC)c(OC)c1)C2=O` [Sappanone A trimethyl ether] yielded a half-maximal effective concentration (EC50) in series [1] (Cricetulus griseus) of 3.5 µM. The maximal fold induction in series [1] (Cricetulus griseus, 24 h) turned out to be 1.99. Besides, in series [1] (setting [10]), the Toxic dose turned out to be 100 µM. The Emax is -60% in series [2]; 40% in series [4] (Homo sapiens); 27% in series [7] (Rattus norvegicus, Astrocyte). The “NSC34 oxidative stress assay Toxic dose” value in series [2] is “none”. Also, the IC50 in series [4] (setting [11]) was found to be 0.279 µM. Further, the “1321N1 oxidative stress assay Toxic dose” value in series [4] was “none”. For the same compound, the “C6 oxidative stress assay Toxic dose” value in series [7] is recorded as “none”.

`O=C1C=C2C=C[C@@H]3C[C@@]2(O1)[C@H]1CCCCN31` [Securinine] showed an EC50 in series [1] (Cricetulus griseus) of 2.12 µM. In addition, the maximal fold induction in series [1] (Cricetulus griseus, 24 h) was 3. In series [1] (setting [10]), this compound gave a Toxic dose of 30 µM. Besides, the Emax in series [2] was 20%; in series [4] (Homo sapiens), 55%; in series [7] (Rattus norvegicus, Astrocyte), 67%. Moreover, the “NSC34 oxidative stress assay Toxic dose” value in series [2] was “None”. Further, the half-maximal inhibitory concentration (IC50) in series [4] (setting [11]) worked out at 18.3 µM; in series [7] (Rattus norvegicus, Astrocyte), 0.645 µM. Also, the “1321N1 oxidative stress assay Toxic dose” value in series [4] is given as “None”. The “C6 oxidative stress assay Toxic dose” value in series [7] is on record as “None”.

With `COC(=O)[C@H](O)[C@H]1C(C)(C)[C@H](OC(C)=O)[C@@H]2CC3=C4CC(=O)O[C@@H](c5ccoc5)[C@]4(C)CC[C@@H]3[C@@]1(C)C2=O` [Swietenolide 3 acetate], the response in series [1] (Cricetulus griseus) was half-maximal at 3.5 µM (EC50). Moreover, the maximal fold induction in series [1] (Cricetulus griseus, 24 h) is 2.82. Besides, the Toxic dose in series [1] (setting [10]) is 100 µM. Further, in series [2], the Emax was 0% and the “NSC34 oxidative stress assay Toxic dose” value was 0.3 µM. For the same compound, in series [4] (Homo sapiens), the Emax is 60%. For the same compound, the “1321N1 oxidative stress assay Toxic dose” value in series [4] is on record as “none”. In series [7] (Rattus norvegicus, Astrocyte), the Emax was found to be 50% and the IC50 came out at 4.22 µM. For the same compound, the “C6 oxidative stress assay Toxic dose” value in series [7] is on record as “none”.

The compound `CC1=CC(=O)C(C(C)C)=CC1=O` [Thymoquinone] gave a Toxic dose in series [1] (setting [10]) of 30 µM. Further, the Emax was 0% in series [2]; 25% in series [4] (Homo sapiens); 32% in series [7] (Rattus norvegicus, Astrocyte). In series [2], the “NSC34 oxidative stress assay Toxic dose” value is “None”. The IC50 in series [4] (setting [11]) is 11 µM; in series [7] (Rattus norvegicus, Astrocyte), 0.014 µM. For the same compound, the “1321N1 oxidative stress assay Toxic dose” value in series [4] is “None”. Further, the “C6 oxidative stress assay Toxic dose” value in series [7] is given as “None”.

“Methyl-7-deshydroxypyrogallin-4-carboxylate” gave a 50% effective concentration (EC50) in series [1] (setting [8]) of more than 100 µM. For the same compound, the “Fold GFP induction” value in series [1] (setting [12]) amounted to 2.83 fold. The Toxic dose in series [1] (setting [10]) is 100 µM. In series [2], the “NSC34 oxidative stress assay Max reduction” value was -23% and the “NSC34 oxidative stress assay Toxic dose” value turned out to be 0.3 µM. Further, in series [4], the “1321N1 oxidative stress assay Max reduction” value is reported as 45% and the “1321N1 oxidative stress assay Toxic dose” value was “none”. In series [7], the “C6 oxidative stress assay Max reduction” value came to 70% and the “C6 oxidative stress assay Toxic dose” value is recorded as “none”. In addition, the IC50 in series [7] (setting [9]) was determined as 2.95 µM.
